Test results published in Sander's compilation of Henry's law constants.
Several values for one entry are separate records, joined by “and”; a condition that tells them apart may be missing. Identical values can stand only once. Values belong to the compound of their own block, whether it stands above or below them.

Assay: Henry solubility constant Hcp at 298.15 K (mol/(m3 Pa))
[1] = reference: Ömür-Özbek and Dietrich (2005)

SMILES: FC(F)Cl [chlorodifluoromethane]
Henry solubility constant Hcp (reference: Boggs and Buck (1958)): 0.00035
Henry solubility constant Hcp (reference: Chang and Criddle (1995)): 0.00017
Henry solubility constant Hcp (reference: Maaßen (1995)): 0.00035
Henry solubility constant Hcp (reference: Reichl (1995)): 0.00035
Henry solubility constant Hcp (reference: Zheng et al. (1997)): 0.00034

SMILES: C#CC=C [3-buten-1-yne]
Henry solubility constant Hcp (reference: Simpson and Lovell (1962)): 0.00038

SMILES: CCCCCC(C)(C)OC [2-methoxy-2-methylheptane]
Henry solubility constant Hcp (reference: Haimi et al. (2006)): 0.0019

SMILES: C=C(C)[C@@H]1CC=C(C)C(=O)C1 [2-methyl-5-(1-methylethenyl)-2-cyclohexen-1-one]
Henry solubility constant Hcp (reference: Amoore and Buttery (1978)): 0.49

SMILES: Clc1c(Cl)c(Cl)c2c(c1Cl)Oc1ccccc1O2 [1,2,3,4-tetrachlorodibenzo-p-dioxin]
Henry solubility constant Hcp (reference: Santl et al. (1994)): 0.5

SMILES: CC1(C)[C@@H]2CC[C@@]1(C)[C@](C)(O)C2 [2-methylisoborneol]
Henry solubility constant Hcp [1]: 0.089

SMILES: FC(F)F [trifluoromethane]
Henry solubility constant Hcp (reference: Maaßen (1995)): 0.00012
Henry solubility constant Hcp (reference: Miguel et al. (2000)): 0.00021
Henry solubility constant Hcp (reference: Zheng et al. (1997)): 0.00013

SMILES: Cc1ccnc(C)c1 [2,4-dimethylpyridine]
Henry solubility constant Hcp (reference: Hawthorne et al. (1985)): 0.99

SMILES: C1CCNCC1 [piperidine]
Henry solubility constant Hcp (reference: Bernauer and Dohnal (2009)): 2.8

SMILES: CC(=O)C(C)O (stereo not given) [3-hydroxy-2-butanone]
Henry solubility constant Hcp (reference: Straver and de Loos (2005)): 0.57
Henry solubility constant Hcp (reference: Wu et al. (2022b)): 3.1

SMILES: ClC1=C(Cl)[C@]2(Cl)[C@H]3[C@H]([C@@H]4C=C[C@H]3C4)[C@@]1(Cl)C2(Cl)Cl [aldrin]
Henry solubility constant Hcp (reference: Warner et al. (1980)): 0.02

SMILES: Cc1c[nH]c2ccccc12 [3-methylindole]
Henry solubility constant Hcp (reference: Wetlaufer et al. (1964)): 2.9e-05

SMILES: COP(=O)(OC)C(O)C(Cl)(Cl)Cl (stereo not given)
Henry solubility constant Hcp (reference: Kawamoto and Urano (1989)): > 810

SMILES: CNC=O [N-methylmethanamide]
Henry solubility constant Hcp (reference: Bernauer and Dohnal (2008)): 1500

SMILES: CCCCO[N+](=O)[O-] [1-butyl nitrate]
Henry solubility constant Hcp (reference: Hauff et al. (1998)): 0.0063
Henry solubility constant Hcp (reference: Luke et al. (1989)): 0.01

SMILES: Brc1ccc(Br)c(Br)c1 [1,2,4-tribromobenzene]
Henry solubility constant Hcp (reference: Kuramochi et al. (2004)): 0.031

SMILES: C/C=C\CCl [(Z)-1-chloro-2-butene]
Henry solubility constant Hcp (reference: Bakierowska and Trzeszczyński (2003)): 0.0012

SMILES: C1CO1 [oxirane]
Henry solubility constant Hcp (reference: Conway et al. (1983)): 0.058

SMILES: O=C(O)C(Cl)(Cl)Cl [trichloroethanoic acid]
Henry solubility constant Hcp (reference: Bowden et al. (1998b)): 730

SMILES: [O][Cl+][O-] [chlorine dioxide]
Henry solubility constant Hcp (reference: Bigorgne (1947)): 0.0066
Henry solubility constant Hcp (reference: Holst (1944)): 0.0097
Henry solubility constant Hcp (reference: Ishi (1958)): 0.011
Henry solubility constant Hcp (reference: Kepinski and Trzeszczynski (1964)): 0.01
Henry solubility constant Hcp (reference: Taube and Dodgen (1949)): 0.01

SMILES: CCCl [chloroethane]
Henry solubility constant Hcp (reference: Chen et al. (2012)): 0.00076
Henry solubility constant Hcp (reference: Gossett (1987)): 0.00088
Henry solubility constant Hcp (reference: Maaßen (1995)): 0.00089
Henry solubility constant Hcp (reference: Reichl (1995)): 0.00093

SMILES: COc1ccccc1O [1-hydroxy-2-methoxybenzene]
Henry solubility constant Hcp (reference: McFall et al. (2020)): 8.6
Henry solubility constant Hcp (reference: Sagebiel et al. (1992)): 7.7 and 9.1
Henry solubility constant Hcp (reference: Wieland et al. (2015)): 9

More lines, now with the values ahead:

Henry solubility constant Hcp [1]: 0.081
SMILES: C[C@@H]1CCC[C@]2(C)CCCC[C@@]12O [geosmin]

Henry solubility constant Hcp (reference: Copolovici and Niinemets (2005)): 0.00018
SMILES: C=C1C=CC(C(C)C)CC1 (stereo not drawn) [β-phellandrene]

Henry solubility constant Hcp (reference: Cosgrove and Walkley (1981)): 2.6e-05
Henry solubility constant Hcp (reference: Crovetto et al. (1982)): 2.5e-05
Henry solubility constant Hcp (reference: Krause and Benson (1989)): 2.5e-05
Henry solubility constant Hcp (reference: Morrison and Johnstone (1954)): 2.4e-05
Henry solubility constant Hcp (reference: von Antropoff (1910)): 3.4e-05 and 2.8e-05
SMILES: [Kr] [krypton]

Henry solubility constant Hcp (reference: Souchon et al. (2004)): 0.026
SMILES: CCCC(=O)SC [S-methyl butanethioate]

Henry solubility constant Hcp (reference: Saidman et al. (1966)): 0.00011
SMILES: C1CC1 [cyclopropane]

Henry solubility constant Hcp (reference: Odabasi et al. (2006)): 93
SMILES: c1ccc2c(c1)[nH]c1ccccc12 [carbazole]

Henry solubility constant Hcp (reference: Ramachandran et al. (1996)): 0.00015
SMILES: CC1CCCCC1 [methylcyclohexane]

Henry solubility constant Hcp (reference: Khan and Brimblecombe (1992)): 21
Henry solubility constant Hcp (reference: Khan et al. (1995)): 23
Henry solubility constant Hcp (reference: Kim and Kim (2016)): 24
Henry solubility constant Hcp (reference: von Hartungen et al. (2004)): 12
SMILES: CCCCC(=O)O [pentanoic acid]

Henry solubility constant Hcp (reference: Lee et al. (2013)): 0.29
SMILES: N#Cc1ccccc1 [benzenenitrile]
